System: MV-4-11 cells
Test: Gene expression microarray analysis (Affymetrix PrimeView) and GSEA
Type: cell-based, human
Set-up: RFU PODN (11730768_x_at) / Fold change /veh PODN (11730768_x_at) / RFU LINC00158 (11744669_a_at) / Fold change /veh LINC00158 (11744669_a_at) / RFU DUSP10 (11751237_a_at) / Fold change /veh DUSP10 (11751237_a_at) / RFU ID3 (11757404_x_at) / Fold change /veh ID3 (11757404_x_at) / RFU PLEKHG5 (11737974_s_at) / Fold change /veh PLEKHG5 (11737974_s_at) / RFU LRRC4B (11730491_at) / Fold change /veh LRRC4B (11730491_at) / RFU GIMAP4 (11747438_a_at) / Fold change /veh GIMAP4 (11747438_a_at) / RFU KRT8 (11758183_x_at) / Fold change /veh KRT8 (11758183_x_at) / RFU CNN1 (11734310_a_at) / Fold change /veh CNN1 (11734310_a_at) / RFU VPS37D (11726825_at) / Fold change /veh VPS37D (11726825_at) / RFU C10orf10 (11716522_x_at) / Fold change /veh C10orf10 (11716522_x_at) / RFU KIR2DL2 /// KIR2DL4 /// KIR2DL5A /// KIR2DL5B /// KIR2DS1 /// KIR2DS2 /// KIR2DS3 /// KIR2DS4 /// KIR3DL3 /// KIR3DL3 /// KIR3DS1 (11738374_at) / Fold change /veh KIR2DL2 /// KIR2DL4 /// KIR2DL5A /// KIR2DL5B /// KIR2DS1 /// KIR2DS2 /// KIR2DS3 /// KIR2DS4 /// KIR3DL3 /// KIR3DL3 /// KIR3DS1 (11738374_at) / RFU C1QL1 (11718748_at) / Fold change /veh C1QL1 (11718748_at) / RFU TMPRSS4 (11747572_a_at) / Fold change /veh TMPRSS4 (11747572_a_at) / RFU HAMP (11756126_x_at) / Fold change /veh HAMP (11756126_x_at) / RFU RNFT2 (11725882_a_at) / Fold change /veh RNFT2 (11725882_a_at) / RFU NR4A2 (11747474_a_at) / Fold change /veh NR4A2 (11747474_a_at) / RFU ABCC12 (11746883_a_at) / Fold change /veh ABCC12 (11746883_a_at) / RFU TMEM136 (11760407_x_at) / Fold change /veh TMEM136 (11760407_x_at) / RFU CLDN22 /// WWC2 (11732394_at) / Fold change /veh CLDN22 /// WWC2 (11732394_at) / RFU HLA-DPB1 (11760878_x_at) / Fold change /veh HLA-DPB1 (11760878_x_at) / RFU SPINT1 (11716480_a_at) / Fold change /veh SPINT1 (11716480_a_at) / RFU GAP43 (11754022_s_at) / Fold change /veh GAP43 (11754022_s_at) / RFU A4GNT (11735810_at) / Fold change /veh A4GNT (11735810_at) / RFU PRB3 (11715151_x_at) / Fold change /veh PRB3 (11715151_x_at) / RFU TUBB4B (11761932_at) / Fold change /veh TUBB4B (11761932_at) / RFU CAPN14 (11732068_a_at) / Fold change /veh CAPN14 (11732068_a_at) / RFU TMCC2 (11721928_a_at) / Fold change /veh TMCC2 (11721928_a_at) / RFU IRGQ (11745062_a_at) / Fold change /veh IRGQ (11745062_a_at) / RFU FAM174B (11720279_a_at) / Fold change /veh FAM174B (11720279_a_at) / RFU TMPRSS4 (11748680_a_at) / Fold change /veh TMPRSS4 (11748680_a_at) / RFU FAM212B (11763350_a_at) / Fold change /veh FAM212B (11763350_a_at) / RFU PLEKHG5 (11743358_a_at) / Fold change /veh PLEKHG5 (11743358_a_at) / RFU ZSCAN30 (11745921_a_at) / Fold change /veh ZSCAN30 (11745921_a_at) / RFU CMKLR1 (11741424_a_at) / Fold change /veh CMKLR1 (11741424_a_at) / RFU LOC101060620 /// MAPK8IP1 (11723275_at) / Fold change /veh LOC101060620 /// MAPK8IP1 (11723275_at) / RFU SPTSSB (11747773_x_at) / Fold change /veh SPTSSB (11747773_x_at) / RFU PRSS12 (11739890_at) / Fold change /veh PRSS12 (11739890_at) / RFU BIN1 (11741810_x_at) / Fold change /veh BIN1 (11741810_x_at) / RFU WNT11 (11732464_a_at) / Fold change /veh WNT11 (11732464_a_at) / RFU C10orf10 (11716521_a_at) / Fold change /veh C10orf10 (11716521_a_at) / RFU C5orf56 (11738089_at) / Fold change /veh C5orf56 (11738089_at) / RFU CYB561 (11721691_x_at) / Fold change /veh CYB561 (11721691_x_at) / RFU ANKRD19P (11752326_a_at) / Fold change /veh ANKRD19P (11752326_a_at) / RFU OR2T12 /// OR2T33 /// OR2T8 (11738714_s_at) / Fold change /veh OR2T12 /// OR2T33 /// OR2T8 (11738714_s_at) / RFU VCAN (11748164_a_at) / Fold change /veh VCAN (11748164_a_at) / RFU JSRP1 (11732532_at) / Fold change /veh JSRP1 (11732532_at) / RFU KRTAP10-11 (11738290_x_at) / Fold change /veh KRTAP10-11 (11738290_x_at) / RFU MYO3A (11730013_a_at) / Fold change /veh MYO3A (11730013_a_at) / RFU EBF3 (11725865_a_at) / Fold change /veh EBF3 (11725865_a_at) / RFU CAMK2N1 (11719241_x_at) / Fold change /veh CAMK2N1 (11719241_x_at) / RFU C5orf56 (11738088_a_at) / Fold change /veh C5orf56 (11738088_a_at) / RFU OLFML3 (11715873_a_at) / Fold change /veh OLFML3 (11715873_a_at) / RFU LOC100653217 /// NTM (11731650_a_at) / Fold change /veh LOC100653217 /// NTM (11731650_a_at) / RFU MAPK11 (11762145_a_at) / Fold change /veh MAPK11 (11762145_a_at) / RFU FIZ1 (11724087_x_at) / Fold change /veh FIZ1 (11724087_x_at) / RFU OASL (11726364_x_at) / Fold change /veh OASL (11726364_x_at) / RFU SOX15 (11748057_x_at) / Fold change /veh SOX15 (11748057_x_at) / RFU CD79A (11719716_a_at) / Fold change /veh CD79A (11719716_a_at) / RFU HIST1H1D (11736915_at) / Fold change /veh HIST1H1D (11736915_at) / RFU CASKIN2 (11723855_a_at) / Fold change /veh CASKIN2 (11723855_a_at) / RFU LOC730098 (11760151_x_at) / Fold change /veh LOC730098 (11760151_x_at) / RFU OR4N2 (11742367_at) / Fold change /veh OR4N2 (11742367_at) / RFU PRRT2 (11749266_a_at) / Fold change /veh PRRT2 (11749266_a_at) / RFU SNX32 (11753110_a_at) / Fold change /veh SNX32 (11753110_a_at) / RFU CDHR5 (11726645_a_at) / Fold change /veh CDHR5 (11726645_a_at) / RFU RCAN1 (11760418_a_at) / Fold change /veh RCAN1 (11760418_a_at) / RFU FAM167A (11723789_a_at) / Fold change /veh FAM167A (11723789_a_at) / RFU FAM26E (11764081_at) / Fold change /veh FAM26E (11764081_at) / RFU ISYNA1 (11749810_s_at) / Fold change /veh ISYNA1 (11749810_s_at) / RFU ACY1 (11761880_at) / Fold change /veh ACY1 (11761880_at) / RFU 11764098_at / Fold change /veh 11764098_at / RFU SAMD14 (11745864_x_at) / Fold change /veh SAMD14 (11745864_x_at) / RFU NPB (11741838_a_at) / Fold change /veh NPB (11741838_a_at) / RFU TMPRSS6 (11731388_a_at) / Fold change /veh TMPRSS6 (11731388_a_at) / RFU KRTAP10-2 (11738614_at) / Fold change /veh KRTAP10-2 (11738614_at) / RFU ARHGAP8 /// PRR5-ARHGAP8 (11727945_x_at) / Fold change /veh ARHGAP8 /// PRR5-ARHGAP8 (11727945_x_at) / RFU KRTAP5-7 /// NADSYN1 (11734609_at) / Fold change /veh KRTAP5-7 /// NADSYN1 (11734609_at) / RFU RASL12 (11751679_a_at) / Fold change /veh RASL12 (11751679_a_at) / RFU CDKN2B (11736163_a_at) / Fold change /veh CDKN2B (11736163_a_at) / RFU PRF1 (11729649_at) / Fold change /veh PRF1 (11729649_at) / RFU, ZNF638 /// ZNF638-IT1 / Fold change vs veh, ZNF638 /// ZNF638-IT1 / RFU, PANK3 / Fold change vs veh, PANK3 / RFU, SH3YL1 / Fold change vs veh, SH3YL1 / RFU, ZEB2 / Fold change vs veh, ZEB2 / RFU, NRIP1 / Fold change vs veh, NRIP1 / RFU, PTTG1IP / Fold change vs veh, PTTG1IP / RFU, CAPN2 / Fold change vs veh, CAPN2 / RFU, MED14 / Fold change vs veh, MED14 / RFU, SNORA58 / Fold change vs veh, SNORA58 / RFU, C1orf63 / Fold change vs veh, C1orf63 / RFU, LRRFIP1 / Fold change vs veh, LRRFIP1 / RFU, NDUFAF7 / Fold change vs veh, NDUFAF7 / RFU, SLC12A2 / Fold change vs veh, SLC12A2 / RFU, IBTK / Fold change vs veh, IBTK / RFU, ESF1 / Fold change vs veh, ESF1 / Fold change vs veh, TMEM50B / RFU, TAOK1 / Fold change vs veh, TAOK1 / RFU, ACBD3 / Fold change vs veh, ACBD3 / RFU, TMA16 / Fold change vs veh, TMA16 / RFU, RWDD3 / Fold change vs veh, RWDD3 / RFU, BCAT1 / Fold change vs veh, BCAT1 / RFU, EDEM3 / Fold change vs veh, EDEM3 / RFU, TMEM33 / Fold change vs veh, TMEM33 / RFU, WDR75 / Fold change vs veh, WDR75 / RFU, AHCTF1 / Fold change vs veh, AHCTF1 / RFU, TFRC / Fold change vs veh, TFRC / RFU, ZDHHC17 / Fold change vs veh, ZDHHC17 / RFU, NOM1 / Fold change vs veh, NOM1 / RFU, ARL8B / Fold change vs veh, ARL8B / RFU, ZBTB11 / Fold change vs veh, ZBTB11 / RFU, TAMM41 / Fold change vs veh, TAMM41 / RFU, KIAA1704 /// LOC100996395 / Fold change vs veh, KIAA1704 /// LOC100996395 / RFU, ING1 / Fold change vs veh, ING1 / RFU, TRMT61B / Fold change vs veh, TRMT61B / RFU, FUBP3 / Fold change vs veh, FUBP3 / RFU, TP53 / Fold change vs veh, TP53 / RFU, TNKS2 / Fold change vs veh, TNKS2 / RFU, ZFP14 / Fold change vs veh, ZFP14 / RFU, ACTR2 / Fold change vs veh, ACTR2 / RFU, PPP3R1 / Fold change vs veh, PPP3R1 / RFU, PIK3R1 / Fold change vs veh, PIK3R1 / RFU, HNRNPA1 / Fold change vs veh, HNRNPA1 / RFU, RNF170 / Fold change vs veh, RNF170 / RFU, ZNF28 / Fold change vs veh, ZNF28 / RFU, RNGTT / Fold change vs veh, RNGTT / RFU, OGT / Fold change vs veh, OGT / RFU, BRD1 / Fold change vs veh, BRD1 / RFU, MARS / Fold change vs veh, MARS / RFU, ZNF655 / Fold change vs veh, ZNF655 / RFU, FAHD1 / Fold change vs veh, FAHD1 / RFU, BDP1 / Fold change vs veh, BDP1 / RFU, LRRCC1 / Fold change vs veh, LRRCC1 / RFU, ARID1A / Fold change vs veh, ARID1A / RFU, ZNF146 / Fold change vs veh, ZNF146 / RFU, ZNF330 / Fold change vs veh, ZNF330 / RFU, GPN3 / Fold change vs veh, GPN3 / RFU, C9orf123 / Fold change vs veh, C9orf123 / RFU, N4BP2L2 / Fold change vs veh, N4BP2L2 / RFU, ARFIP1 / Fold change vs veh, ARFIP1 / RFU, FAM179B / Fold change vs veh, FAM179B / RFU, BCL10 / Fold change vs veh, BCL10 / RFU, UHRF1BP1L / Fold change vs veh, UHRF1BP1L / RFU, BET1 / Fold change vs veh, BET1 / RFU, CNOT2 / Fold change vs veh, CNOT2 / RFU, ZNF268 / Fold change vs veh, ZNF268 / Fold change vs veh, ZNF507 / RFU, DGCR2 / Fold change vs veh, DGCR2 / RFU, WDSUB1 / Fold change vs veh, WDSUB1 / Fold change vs veh, HSP90B1 /// MIR3652 / RFU, ADSS / Fold change vs veh, ADSS / RFU, GK / Fold change vs veh, GK / RFU, ZNF148 / Fold change vs veh, ZNF148 / RFU, TAF9 / Fold change vs veh, TAF9 / RFU, SLC1A5 / Fold change vs veh, SLC1A5 / RFU, SLMO2 / Fold change vs veh, SLMO2 / RFU, ABCC4 / Fold change vs veh, ABCC4 / RFU, LOC101060439 /// RAP1B / Fold change vs veh, LOC101060439 /// RAP1B / RFU, RFX7 / Fold change vs veh, RFX7 / RFU, GTPBP10 / Fold change vs veh, GTPBP10 / RFU, CNEP1R1 / Fold change vs veh, CNEP1R1 / RFU, BIVM-ERCC5 /// ERCC5 / Fold change vs veh, BIVM-ERCC5 /// ERCC5 / RFU, ILF3 / Fold change vs veh, ILF3 / RFU 11762660_at / Fold change /veh 11762660_at / RFU VCAN (11757783_s_at) / Fold change /veh VCAN (11757783_s_at) / RFU DDX43 (11728927_at) / Fold change /veh DDX43 (11728927_at) / RFU KRT8 (11758188_x_at) / Fold change /veh KRT8 (11758188_x_at) / RFU NKD1 (11759106_at) / Fold change /veh NKD1 (11759106_at) / RFU SRD5A1 (11742802_a_at) / Fold change /veh SRD5A1 (11742802_a_at) / RFU TPSAB1 /// TPSB2 (11721975_s_at) / Fold change /veh TPSAB1 /// TPSB2 (11721975_s_at) / RFU GSTM3 (11746129_a_at) / Fold change /veh GSTM3 (11746129_a_at) / RFU IL23R (11737362_x_at) / Fold change /veh IL23R (11737362_x_at) / RFU TMEM51 (11727254_a_at) / Fold change /veh TMEM51 (11727254_a_at) / RFU PIWIL2 (11732686_x_at) / Fold change /veh PIWIL2 (11732686_x_at) / RFU ORM1 (11744905_x_at) / Fold change /veh ORM1 (11744905_x_at) / RFU CCDC152 (11743942_at) / Fold change /veh CCDC152 (11743942_at) / RFU ECM1 (11717891_a_at) / Fold change /veh ECM1 (11717891_a_at) / RFU IL23R (11748794_a_at) / Fold change /veh IL23R (11748794_a_at) / RFU TNFAIP8L3 (11732012_x_at) / Fold change /veh TNFAIP8L3 (11732012_x_at) / RFU MBOAT4 (11741988_at) / Fold change /veh MBOAT4 (11741988_at) / RFU 11764193_at / Fold change /veh 11764193_at / RFU TMEM53 (11763286_at) / Fold change /veh TMEM53 (11763286_at) / RFU MAGEB2 (11727129_at) / Fold change /veh MAGEB2 (11727129_at) / RFU TMEM200A (11744735_a_at) / Fold change /veh TMEM200A (11744735_a_at) / RFU CCDC152 (11751479_a_at) / Fold change /veh CCDC152 (11751479_a_at) / RFU FAM211A (11726209_a_at) / Fold change /veh FAM211A (11726209_a_at) / RFU RGS16 (11746705_a_at) / Fold change /veh RGS16 (11746705_a_at) / RFU VCAN (11755009_s_at) / Fold change /veh VCAN (11755009_s_at) / RFU RHOB (11743442_s_at) / Fold change /veh RHOB (11743442_s_at) / RFU RGS16 (11720943_a_at) / Fold change /veh RGS16 (11720943_a_at) / RFU RGS16 (11720944_at) / Fold change /veh RGS16 (11720944_at) / RFU, VPS4B / Fold change vs veh, VPS4B / RFU, CREB1 / Fold change vs veh, CREB1 / RFU, DNAJC13 / Fold change vs veh, DNAJC13 / RFU, GNAQ / Fold change vs veh, GNAQ / RFU, CDK5R1 / Fold change vs veh, CDK5R1 / RFU, ZRANB3 / Fold change vs veh, ZRANB3 / RFU, CUL4A / Fold change vs veh, CUL4A / RFU, CCNY / Fold change vs veh, CCNY / RFU, UFL1 / Fold change vs veh, UFL1 / RFU, COG3 / Fold change vs veh, COG3 / RFU, DIAPH2 / Fold change vs veh, DIAPH2 / RFU, SKA2 / Fold change vs veh, SKA2 / RFU, AFF3 / Fold change vs veh, AFF3 / RFU, LMF1 / Fold change vs veh, LMF1 / RFU, IPO11 / Fold change vs veh, IPO11 / RFU, DFFB / Fold change vs veh, DFFB / RFU, FOXP1 / Fold change vs veh, FOXP1 / RFU, CARD8 / Fold change vs veh, CARD8 / RFU, STRN3 / Fold change vs veh, STRN3 / RFU, ADK / Fold change vs veh, ADK / RFU, RASSF2 / Fold change vs veh, RASSF2 / RFU, WIPF1 / Fold change vs veh, WIPF1 / RFU, LARP1B / Fold change vs veh, LARP1B / RFU, RASA1 / Fold change vs veh, RASA1 / RFU, RB1 / Fold change vs veh, RB1 / RFU, PPFIA1 / Fold change vs veh, PPFIA1 / RFU, MAT2A / Fold change vs veh, MAT2A / RFU, CCT5 / Fold change vs veh, CCT5 / RFU, WDR92 / Fold change vs veh, WDR92 / RFU, CUX1 / Fold change vs veh, CUX1 / RFU, TTC7A / Fold change vs veh, TTC7A / RFU, TMEM135 / Fold change vs veh, TMEM135 / RFU, DEPTOR / Fold change vs veh, DEPTOR / RFU, CPM / Fold change vs veh, CPM / RFU, DNAJB6 / Fold change vs veh, DNAJB6 / RFU, CACNA2D3 / Fold change vs veh, CACNA2D3 / RFU, DTX4 / Fold change vs veh, DTX4 / RFU, TFCP2 / Fold change vs veh, TFCP2 / RFU, GMCL1 /// GMCL1P1 / Fold change vs veh, GMCL1 /// GMCL1P1 / RFU, AEBP2 / Fold change vs veh, AEBP2 / RFU, SNHG1 /// SNORD22 /// SNORD25 /// SNORD26 /// SNORD27 /// SNORD28 /// SNORD29 /// SNORD31 / Fold change vs veh, SNHG1 /// SNORD22 /// SNORD25 /// SNORD26 /// SNORD27 /// SNORD28 /// SNORD29 /// SNORD31 / Fold change (Aza/veh), C12orf56 (ProbeSet 11735607_a_at) / Fold change (ACY-1035/veh), C12orf56 (ProbeSet 11735607_a_at) / Fold change (Aza/veh), FGFR1OP (ProbeSet 11751329_s_at) / Fold change (ACY-1035/veh), FGFR1OP (ProbeSet 11751329_s_at) / Fold change (Aza/veh), VPS36 (ProbeSet 11739960_a_at) / Fold change (ACY-1035/veh), VPS36 (ProbeSet 11739960_a_at) / RFU SYPL1 (11715823_x_at) / Fold change /veh SYPL1 (11715823_x_at) / RFU IGFBP7 (11715501_s_at) / Fold change /veh IGFBP7 (11715501_s_at) / RFU REEP3 (11722064_at) / Fold change /veh REEP3 (11722064_at) / RFU IGLL1 (11728026_x_at) / Fold change /veh IGLL1 (11728026_x_at): dose or concentration left out as unconfirmed
Conditions: ProbeSet 11723944_a_at; LIST B

Nc1ncn([C@@H]2O[C@H](CO)[C@@H](O)[C@H]2O)c(=O)n1 [azacitidine]
RFU, PTTG1IP: 678.15 RFU

From article PMC5218480 (PLoS ONE, 2017)
